Experimental data published in ChEMBL document CHEMBL1201862, “PubChem BioAssay data set” (2004).
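Five concentrations, 48 hours, 96-well plates. GI50 marks 50% less growth.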 Calls of active or inactive are those of the source. Cut-off read from the data, not from the text of the source: active = GI50 up to about 1.1 µM and inactive = higher.

Key:
Test in all cases: NCI anticancer screen, dose series, 48 h
CAKI-1 = tested on: CAKI-1
KM12 = tested on: KM12
SNB-75 = tested on: SNB-75
UACC-62 = tested on: UACC-62
NCI-H460 = tested on: NCI-H460
MDA-MB-231 = tested on: MDA-MB-231
OVCAR-3 = tested on: OVCAR-3
A498 = tested on: A498
NCI-H226 = tested on: NCI-H226
M14 = tested on: M14
SF-268 = tested on: SF-268
HCC 2998 = tested on: HCC 2998
ACHN = tested on: ACHN
SN12C = tested on: SN12C
Malme-3M = tested on: Malme-3M
SK-OV-3 = tested on: SK-OV-3
SNB-19 = tested on: SNB-19
HCT-116 = tested on: HCT-116
Hs-578T = tested on: Hs-578T
HT-29 = tested on: HT-29
MCF7 = tested on: MCF7
COLO 205 = tested on: COLO 205
NCI-H23 = tested on: NCI-H23
U-251 = tested on: U-251
NCI/ADR-RES = tested on: NCI/ADR-RES
UO-31 = tested on: UO-31
PC-3 = tested on: PC-3
TK-10 = tested on: TK-10
HOP-92 = tested on: HOP-92
MOLT-4 = tested on: MOLT-4
SK-MEL-2 = tested on: SK-MEL-2
RXF 393 = tested on: RXF 393
T47D = tested on: T47D
SK-MEL-28 = tested on: SK-MEL-28
DU-145 = tested on: DU-145
SF-539 = tested on: SF-539
CCRF-CEM = tested on: CCRF-CEM
EKVX = tested on: EKVX
LOX IMVI = tested on: LOX IMVI
OVCAR-5 = tested on: OVCAR-5
786-0 = tested on: 786-0
UACC-257 = tested on: UACC-257
NCI-H522 = tested on: NCI-H522
SF-295 = tested on: SF-295
SR = tested on: SR
RPMI-8226 = tested on: RPMI-8226
HOP-62 = tested on: HOP-62
MDA-MB-435 = tested on: MDA-MB-435
MDA-N = tested on: MDA-N
K562 = tested on: K562
SK-MEL-5 = tested on: SK-MEL-5
HCT-15 = tested on: HCT-15
A549 = tested on: A549
IGROV-1 = tested on: IGROV-1
SW-620 = tested on: SW-620
OVCAR-8 = tested on: OVCAR-8
BT-549 = tested on: BT-549
OVCAR-4 = tested on: OVCAR-4
HL-60 = tested on: HL-60

COc1ccc(CN(CCc2c[nH]c3ccccc23)Cc2ccc(OC)cc2)cc1
GI50 (CAKI-1): 3.94 µM (inactive) | GI50 (KM12): 2.67 µM (inactive) | GI50 (SNB-75): 6.25 µM (inactive) | GI50 (UACC-62): 2.14 µM (inactive) | GI50 (NCI-H460): 2.15 µM (inactive) | GI50 (MDA-MB-231): 8.65 µM (inactive) | GI50 (OVCAR-3): 3.23 µM (inactive) | GI50 (A498): 4.24 µM (inactive) | GI50 (NCI-H226): 1.37 µM (inactive) | GI50 (M14): 2.8 µM (inactive) | GI50 (SF-268): 4.39 µM (inactive) | GI50 (HCC 2998): 3.34 µM (inactive) | GI50 (ACHN): 3.37 µM (inactive) | GI50 (SN12C): 0.968 µM (active) | GI50 (Malme-3M): 3.04 µM (inactive) | GI50 (SK-OV-3): 5.46 µM (inactive) | GI50 (SNB-19): 5.13 µM (inactive) | GI50 (HCT-116): 0.83 µM (active) | GI50 (Hs-578T): 16.7 µM (inactive) | GI50 (HT-29): 1.29 µM (inactive) | GI50 (MCF7): 3.47 µM (inactive) | GI50 (COLO 205): 2.04 µM (inactive) | GI50 (NCI-H23): 2.31 µM (inactive) | GI50 (U-251): 5.81 µM (inactive) | GI50 (NCI/ADR-RES): 3.2 µM (inactive) | GI50 (UO-31): 1.47 µM (inactive) | GI50 (PC-3): 3.66 µM (inactive) | GI50 (TK-10): 1.29 µM (inactive) | GI50 (HOP-92): 3.29 µM (inactive) | GI50 (MOLT-4): > 21 µM (inactive) | GI50 (SK-MEL-2): 3.9 µM (inactive) | GI50 (RXF 393): 4.69 µM (inactive) | GI50 (T47D): 1.33 µM (inactive) | GI50 (SK-MEL-28): 3.86 µM (inactive) | GI50 (DU-145): 4.65 µM (inactive) | GI50 (SF-539): 1.56 µM (inactive) | GI50 (CCRF-CEM): 6.67 µM (inactive) | GI50 (EKVX): 5.26 µM (inactive) | GI50 (LOX IMVI): 3.15 µM (inactive) | GI50 (OVCAR-5): 3.64 µM (inactive) | GI50 (786-0): 3.08 µM (inactive) | GI50 (UACC-257): 3.8 µM (inactive) | GI50 (NCI-H522): 2.88 µM (inactive) | GI50 (SF-295): 1.15 µM (inactive) | GI50 (SR): 7.57 µM (inactive) | GI50 (RPMI-8226): 3.82 µM (inactive) | GI50 (HOP-62): 3.01 µM (inactive) | GI50 (MDA-MB-435): 2.76 µM (inactive) | GI50 (MDA-N): 1.92 µM (inactive) | GI50 (K562): 4.75 µM (inactive) | GI50 (SK-MEL-5): 2.77 µM (inactive) | GI50 (HCT-15): 3.44 µM | GI50 (A549): 3.63 µM (inactive) | GI50 (IGROV-1): 1.8 µM (inactive) | GI50 (SW-620): 4.19 µM (inactive) | GI50 (OVCAR-8): 3.95 µM (inactive) | GI50 (BT-549): 5.71 µM (inactive) | GI50 (OVCAR-4): 3.88 µM (inactive)

O=c1[nH]c2nc3ccccc3c(=O)n2/c1=C/c1ccc(O)cc1
GI50 (CAKI-1): 43.3 µM (inactive) | GI50 (KM12): 29.6 µM (inactive) | GI50 (SNB-75): 23.8 µM (inactive) | GI50 (UACC-62): 27 µM (inactive) | GI50 (MDA-MB-231): 60.3 µM (inactive) | GI50 (OVCAR-3): 27 µM (inactive) | GI50 (NCI-H226): 38.7 µM (inactive) | GI50 (M14): 36.8 µM (inactive) | GI50 (SF-268): 25.4 µM (inactive) | GI50 (HCC 2998): 22.2 µM (inactive) | GI50 (ACHN): 56.1 µM (inactive) | GI50 (SN12C): 30.6 µM (inactive) | GI50 (Malme-3M): 39.1 µM (inactive) | GI50 (SK-OV-3): > 100 µM (inactive) | GI50 (SNB-19): 21 µM (inactive) | GI50 (HCT-116): 36.8 µM (inactive) | GI50 (Hs-578T): 18.6 µM (inactive) | GI50 (HT-29): 24 µM (inactive) | GI50 (MCF7): 31 µM (inactive) | GI50 (COLO 205): 43.9 µM (inactive) | GI50 (NCI-H23): 49 µM (inactive) | GI50 (U-251): 26.2 µM (inactive) | GI50 (NCI/ADR-RES): 41.7 µM (inactive) | GI50 (UO-31): 53.7 µM (inactive) | GI50 (PC-3): 45.3 µM (inactive) | GI50 (TK-10): 53 µM (inactive) | GI50 (HOP-92): 49.5 µM (inactive) | GI50 (MOLT-4): 31.7 µM (inactive) | GI50 (SK-MEL-2): 75.3 µM (inactive) | GI50 (RXF 393): 40.2 µM (inactive) | GI50 (T47D): 42.2 µM (inactive) | GI50 (SK-MEL-28): 28.3 µM (inactive) | GI50 (DU-145): 30.8 µM (inactive) | GI50 (SF-539): 21.3 µM (inactive) | GI50 (CCRF-CEM): 20.8 µM (inactive) | GI50 (EKVX): 54.3 µM (inactive) | GI50 (LOX IMVI): 35.6 µM (inactive) | GI50 (OVCAR-5): > 100 µM (inactive) | GI50 (786-0): 34.8 µM (inactive) | GI50 (UACC-257): 56.8 µM (inactive) | GI50 (NCI-H522): 23.2 µM (inactive) | GI50 (SF-295): 46.9 µM (inactive) | GI50 (SR): 16.9 µM (inactive) | GI50 (RPMI-8226): 16.9 µM (inactive) | GI50 (HOP-62): 64 µM (inactive) | GI50 (MDA-MB-435): 25.5 µM (inactive) | GI50 (HL-60): 26 µM (inactive) | GI50 (MDA-N): 32.3 µM (inactive) | GI50 (SK-MEL-5): 52.7 µM (inactive) | GI50 (HCT-15): 30.9 µM | GI50 (A549): 40.6 µM (inactive) | GI50 (IGROV-1): 39.2 µM (inactive) | GI50 (SW-620): 22.6 µM (inactive) | GI50 (OVCAR-8): 22 µM (inactive) | GI50 (BT-549): 32.1 µM (inactive) | GI50 (OVCAR-4): > 100 µM (inactive)
